Measured values: ChEMBL document CHEMBL1201862, “PubChem BioAssay data set” (2004)
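Method: 48-hour compound exposure of cells in 96-well plates, five concentrations, linear interpolation of endpoints. GI50 is the concentration that inhibits growth by half.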 Active and inactive are the calls of the source. Cut-off read from the data, not from the text of the source: active = GI50 up to about 1.1 µM and inactive = higher.

What was measured:
Assay in all cases: growth of human tumour cells (NCI), 48 h
[1] = test system: 786-0
[2] = test system: A498
[3] = test system: A549
[4] = test system: ACHN
[5] = test system: CAKI-1
[6] = test system: CCRF-CEM
[7] = test system: COLO 205
[8] = test system: DLD-1
[9] = test system: DMS-114
[10] = test system: DMS-273
[11] = test system: EKVX
[12] = test system: HCC 2998
[13] = test system: HCT-15
[14] = test system: HL-60
[15] = test system: HOP-18
[16] = test system: HT-29
[17] = test system: IGROV-1
[18] = test system: K562
[19] = test system: KM-20L2
[20] = test system: KM12
[21] = test system: LOX IMVI
[22] = test system: LXFL 529
[23] = test system: M14
[24] = test system: MOLT-4
[25] = test system: Malme-3M
[26] = test system: NCI-H23
[27] = test system: NCI-H460
[28] = test system: NCI-H522
[29] = test system: OVCAR-4
[30] = test system: OVCAR-5
[31] = test system: OVCAR-8
[32] = test system: RPMI-8226
[33] = test system: RXF 393
[34] = test system: RXF 631
[35] = test system: SF-268
[36] = test system: SF-295
[37] = test system: SF-539
[38] = test system: SK-MEL-28
[39] = test system: SK-MEL-2
[40] = test system: SK-MEL-5
[41] = test system: SK-OV-3
[42] = test system: SN12C
[43] = test system: SNB-19
[44] = test system: SNB-75
[45] = test system: SNB-78
[46] = test system: SW-620
[47] = test system: TK-10
[48] = test system: U-251
[49] = test system: UACC-257
[50] = test system: UACC-62
[51] = test system: UO-31
[52] = test system: XF498
[53] = test system: HCT-116
[54] = test system: HOP-62
[55] = test system: M19-MEL
[56] = test system: NCI-H226
[57] = test system: OVCAR-3
[58] = test system: SR
[59] = test system: HOP-92

Cn1c2c([N+](=O)[O-])cccc2c(=O)c2c(O)cc3c(c21)C=CC(C)(C)O3
GI50 [1]: 32 µM (inactive)
GI50 [2]: 5.51 µM (inactive)
GI50 [3]: 34.8 µM (inactive)
GI50 [4]: 43.5 µM (inactive)
GI50 [5]: 18.7 µM (inactive)
GI50 [6]: 41 µM (inactive)
GI50 [7]: 44.8 µM (inactive)
GI50 [8]: 24.8 µM (inactive)
GI50 [9]: 22.8 µM (inactive)
GI50 [10]: 33.2 µM (inactive)
GI50 [11]: 6.59 µM (inactive)
GI50 [12]: 20.7 µM (inactive)
GI50 [13]: 20.7 µM
GI50 [14]: 16.6 µM (inactive)
GI50 [15]: < 0.01 µM (active)
GI50 [16]: 23.4 µM (inactive)
GI50 [17]: 34.4 µM (inactive)
GI50 [18]: 39.3 µM (inactive)
GI50 [19]: 17.7 µM (inactive)
GI50 [20]: 23.2 µM (inactive)
GI50 [21]: 25.2 µM (inactive)
GI50 [22]: 25.6 µM (inactive)
GI50 [23]: 86.7 µM (inactive)
GI50 [24]: 42.9 µM (inactive)
GI50 [25]: 40.2 µM (inactive)
GI50 [26]: 30.8 µM (inactive)
GI50 [27]: 36.6 µM (inactive)
GI50 [28]: 11.2 µM (inactive)
GI50 [29]: 20.8 µM (inactive)
GI50 [30]: 35.7 µM (inactive)
GI50 [31]: 29.6 µM (inactive)
GI50 [32]: 18.4 µM (inactive)
GI50 [33]: 18.1 µM (inactive)
GI50 [34]: 33.7 µM (inactive)
GI50 [35]: 38.9 µM (inactive)
GI50 [36]: 24.1 µM (inactive)
GI50 [37]: 22.5 µM (inactive)
GI50 [38]: 84.5 µM (inactive)
GI50 [39]: 35.9 µM (inactive)
GI50 [40]: 28.3 µM (inactive)
GI50 [41]: 46.7 µM (inactive)
GI50 [42]: 52 µM (inactive)
GI50 [43]: 41.7 µM (inactive)
GI50 [44]: 23.9 µM (inactive)
GI50 [45]: 38 µM (inactive)
GI50 [46]: 69.3 µM (inactive)
GI50 [47]: 54.6 µM (inactive)
GI50 [48]: > 100 µM (inactive)
GI50 [49]: 46.5 µM (inactive)
GI50 [50]: 21.7 µM (inactive)
GI50 [51]: 40.6 µM (inactive)
GI50 [52]: 11.5 µM (inactive)

COC(=O)C(C(=O)C(=O)Nc1nnc(S)[nH]1)c1csc(N)n1 (centres undefined)
GI50 [1]: > 100 µM (inactive)
GI50 [2]: > 100 µM (inactive)
GI50 [3]: > 100 µM (inactive)
GI50 [4]: > 100 µM (inactive)
GI50 [5]: > 100 µM (inactive)
GI50 [6]: > 100 µM (inactive)
GI50 [7]: > 100 µM (inactive)
GI50 [8]: > 100 µM (inactive)
GI50 [10]: > 100 µM (inactive)
GI50 [11]: > 100 µM (inactive)
GI50 [12]: > 100 µM (inactive)
GI50 [53]: > 100 µM (inactive)
GI50 [13]: > 100 µM
GI50 [14]: > 100 µM (inactive)
GI50 [15]: > 100 µM (inactive)
GI50 [54]: > 100 µM (inactive)
GI50 [16]: > 100 µM (inactive)
GI50 [17]: > 100 µM (inactive)
GI50 [18]: > 100 µM (inactive)
GI50 [19]: > 100 µM (inactive)
GI50 [20]: > 100 µM (inactive)
GI50 [21]: > 100 µM (inactive)
GI50 [22]: > 100 µM (inactive)
GI50 [23]: > 100 µM (inactive)
GI50 [55]: > 100 µM (inactive)
GI50 [24]: > 100 µM (inactive)
GI50 [25]: > 100 µM (inactive)
GI50 [56]: > 100 µM (inactive)
GI50 [26]: > 100 µM (inactive)
GI50 [27]: > 100 µM (inactive)
GI50 [28]: > 100 µM (inactive)
GI50 [57]: > 100 µM (inactive)
GI50 [29]: > 100 µM (inactive)
GI50 [30]: > 100 µM (inactive)
GI50 [31]: > 100 µM (inactive)
GI50 [32]: > 100 µM (inactive)
GI50 [33]: > 100 µM (inactive)
GI50 [34]: > 100 µM (inactive)
GI50 [35]: > 100 µM (inactive)
GI50 [36]: > 100 µM (inactive)
GI50 [37]: > 100 µM (inactive)
GI50 [38]: > 100 µM (inactive)
GI50 [39]: > 100 µM (inactive)
GI50 [40]: > 100 µM (inactive)
GI50 [41]: > 100 µM (inactive)
GI50 [42]: > 100 µM (inactive)
GI50 [43]: > 100 µM (inactive)
GI50 [44]: > 100 µM (inactive)
GI50 [45]: > 100 µM (inactive)
GI50 [58]: > 100 µM (inactive)
GI50 [46]: > 100 µM (inactive)
GI50 [47]: > 100 µM (inactive)
GI50 [48]: > 100 µM (inactive)
GI50 [49]: > 100 µM (inactive)
GI50 [50]: > 100 µM (inactive)
GI50 [51]: > 100 µM (inactive)
GI50 [52]: > 100 µM (inactive)

O=Cc1ccc(CCl)cc1
GI50 [2]: 29 µM (inactive)
GI50 [3]: 39.2 µM (inactive)
GI50 [4]: 22.5 µM (inactive)
GI50 [6]: 12.4 µM (inactive)
GI50 [7]: 48 µM (inactive)
GI50 [8]: 16.1 µM (inactive)
GI50 [9]: 6.93 µM (inactive)
GI50 [10]: 19.8 µM (inactive)
GI50 [11]: 45.6 µM (inactive)
GI50 [53]: 14.5 µM (inactive)
GI50 [13]: 17.9 µM
GI50 [14]: 4.56 µM (inactive)
GI50 [15]: 14.4 µM (inactive)
GI50 [59]: 27.7 µM (inactive)
GI50 [16]: 16.8 µM (inactive)
GI50 [17]: 20.8 µM (inactive)
GI50 [18]: 27.1 µM (inactive)
GI50 [19]: 23.6 µM (inactive)
GI50 [20]: 23.5 µM (inactive)
GI50 [21]: 11 µM (inactive)
GI50 [22]: 16.2 µM (inactive)
GI50 [23]: 14.8 µM (inactive)
GI50 [55]: 17.3 µM (inactive)
GI50 [24]: 22.9 µM (inactive)
GI50 [26]: > 10 µM (inactive)
GI50 [27]: 18.6 µM (inactive)
GI50 [28]: 19.7 µM (inactive)
GI50 [57]: 19.1 µM (inactive)
GI50 [30]: 20.5 µM (inactive)
GI50 [31]: 18.8 µM (inactive)
GI50 [33]: 16.9 µM (inactive)
GI50 [34]: 3.16 µM (inactive)
GI50 [35]: 24 µM (inactive)
GI50 [36]: 17.4 µM (inactive)
GI50 [37]: 17.1 µM (inactive)
GI50 [38]: 17.5 µM (inactive)
GI50 [39]: 17.2 µM (inactive)
GI50 [40]: 16.6 µM (inactive)
GI50 [41]: 22.1 µM (inactive)
GI50 [43]: 14.7 µM (inactive)
GI50 [44]: > 10 µM (inactive)
GI50 [45]: 16.5 µM (inactive)
GI50 [58]: 19.5 µM (inactive)
GI50 [46]: 21.5 µM (inactive)
GI50 [47]: 22.1 µM (inactive)
GI50 [48]: 18.2 µM (inactive)
GI50 [49]: 17.7 µM (inactive)
GI50 [50]: 12.6 µM (inactive)
GI50 [51]: 16.7 µM (inactive)
GI50 [52]: 20 µM (inactive)
